Data published in patent US20240261411A1, “PERMEATION ENHANCERS FOR GASTROINTESTINAL SYNTHETIC EPITHELIAL LININGS” (Syntis Bio, Inc., priority 2023, published 2024).

Assays:
[1] = pig model, semaglutide pharmacokinetics after endoscopic placement or IV; parameters: species or system Yorkshire pigs; conditions: in vivo, 1.5 mg/kg
Excerpt: Yorkshire pigs, weighing 40-80 kg each over 7 months and approximately 4-9 months of age were used. Following routine preoperative fast, pigs were anesthetized, intubated, and maintained on isoflurane anesthesia during the procedure. An indwelling marginal ear vein catheter was be inserted for blood collection, which occurred over 1-7 days. Dry GSEL powders containing permeation enhancers and semaglutide were solubilized with Tris buffer immediately before administration. An endoscope guided catheter was placed into the proximal small intestines, where the GSEL suspensions were injected. Blood was taken periodically from the ear vein catheter and the blood was immediately centrifuged down in serum collection tubes. Samples were analyzed via ELISA and LC-MS. Pigs were woken up after 6 hours and monitored until full recovery.
For the following experiment, a ratio of formulation components as presented in Table E8 was used (e.g., 2×GSEL, 6.4 mg/kg GCA, 6.4 mg/kg NHCO, with semaglutide at a final ratio of 20:2.35 permeation enhancer to semaglutide).

[2] = Franz cell permeability of semaglutide; conditions: Franz cells, porcine duodenal tissue
Experimental: Franz cells were used for testing different permeation enhancers on ex vivo tissue from the small intestine, such as porcine duodenal tissue (or colon tissue where indicated). Water pumps were attached to the Franz cell rack to maintain each Franz cell at 37° C. The racks were loaded with Franz cells, and each cell was filled with 5 mL of phosphate buffered saline. Tissue was cut into ˜3.2×3.2 cm squares and any large clumps of mucus or excrement was removed before mounting onto the Franz cells. Next, gastrointestinal synthetic epithelial lining (GSEL) solutions were prepared by first weighing out dopamine HCl, polydopamine, and a permeation enhancer into a vial. […] Samples from the receiving compartment was periodically collected from 0 to 24 hours and the concentration of API was measured. […]
The same experiment was carried out, except without using a permeation enhancer in the GSEL solution. The amount of API detected in the receiving compartment for GSELS with permeation enhancer was compared to the amount of API detected in the receiving compartment for GSELs without permeation enhancer at each time point to determine the increase in permeation provided by the permeation enhancer.

Compound	absorption, in words [1]	semaglutide permeability, comparison in words [2]
CC[C@H](C)[C@H](NC(=O)[C@H](Cc1ccccc1)NC(=O)[C@H](CCC(=O)O)NC(=O)[C@H](CCCCNC(=O)COCCOCCNC(=O)COCCOCCNC(=O)CC[C@H](NC(=O)CCCCCCCCCCCCCCCCC(=O)O)C(=O)O)NC(=O)[C@H](C)NC(=O)[C@H](C)NC(=O)[C@H](CCC(N)=O)NC(=O)CNC(=O)[C@H](CCC(=O)O)NC(=O)[C@H](CC(C)C)NC(=O)[C@H](Cc1ccc(O)cc1)NC(=O)[C@H](CO)NC(=O)[C@H](CO)NC(=O)[C@@H](NC(=O)[C@H](CC(=O)O)NC(=O)[C@H](CO)NC(=O)[C@@H](NC(=O)[C@H](Cc1ccccc1)NC(=O)[C@@H](NC(=O)CNC(=O)[C@H](CCC(=O)O)NC(=O)C(C)(C)NC(=O)[C@@H](N)Cc1cnc[nH]1)[C@@H](C)O)[C@@H](C)O)C(C)C)C(=O)N[C@@H](C)C(=O)N[C@@H](Cc1c[nH]c2ccccc12)C(=O)N[C@@H](CC(C)C)C(=O)N[C@H](C(=O)N[C@@H](CCCNC(=N)N)C(=O)NCC(=O)N[C@@H](CCCNC(=N)N)C(=O)NCC(=O)O)C(C)C [Control (semaglutide only), semaglutide]	zero absorption	
O=C([O-])CCCCCCCNC(=O)c1ccccc1O.[Na+] [SNAC, sodium N-[8-(2-hydroxybenzoyl)amino]caprylate]		did not promote permeation of semaglutide as much
